Experimental findings from patent publication US20240269287A1, “MICROBUBBLE-ASSISTED ULTRASOUND-GUIDED THERAPY” (THE BOARD OF REGENTS OF THE UNIVERSITY OF TEXAS SYSTEM, priority 2021, published 2024) are described below.

The test system of experiment [1] is BMDMs. It counts as cell-based, mouse. The method, then:
Mouse bone marrow-derived macrophages (BMDMs) were isolated from the hind leg femur bone marrow of C57BL/6J mice and were cultured or activated with macrophage colony-stimulating factor (M-CSF, 50 ng ml-1) according to standardized procedures. The purity of the induced cells was assessed by flow cytometry for CD45+CD11b+ cells.
One day before treatment, cells were plated at 400,000 cells/well in a 12 well plate. […] […] Plates were flipped upside down and left to incubate for 10 min at 37° C. Cells were diluted to 2.5 mL with PFB-saturated RPMI, placed on top of a water bath set to 37° C., then sonoporated at 1 MHz, with 1 W/cm^2 power density, 20% duty cycle (DC) for 60 seconds (SONITRON® GTS, 15 mm diameter). Fluorescence microscopy images were taken at different time points (0, 3, 6, 12, 24, and 48 h).

Experiment [2] concerns EO771 orthotopic breast tumors. The experiment in a line: Tumor growth and survival. Conditions: wild type mice, three intratumoral treatments every other day, 100 μg cGAMP. The format is in vivo, mouse.
Protocol: Orthotopic mammary fat pad tumors were established as in Example 9. […] The mice were injected intratumorally with 20 μL of solution infused at 1 μL/second using a syringe pump. […] The mice were treated every other day for a total of three treatments (days 13, 15, and 17). US, where part of the treatment group, was applied by using acoustic coupling gel and a 1-MHz plane wave transducer operating at 4 W/cm^2 for 60 seconds and a 50% duty cycle given to opposite sides of the tumor for a total treatment time of 120 seconds. At 18 days post tumor inoculation treated mice were sacrificed.
Tumor sizes were measured every two days using digital calipers, and tumor volume was calculated according to an ellipsoid formula as 0.5×length×width^2. Mice were sacrificed if any tumor ulceration was observed or if tumors reached 2000 mm^3 in volume. The final tumor volume comparison between the MUSIC and control groups was done when the first mice from a control group was sacrificed. […] Statistical analysis was done using an unpaired t-test for tumor sizes and Log-rank test for survival curves.
In experiment [3] the test system is STING pathway in BMDMs. The experiment in a line: STING signaling after treatment (qRT-PCR, ELISA, western blot, immunostaining). The format is cell-based, mouse.
Protocol: Mouse BMDMs and human THP-1 cells were cultured as described above.

As to “2′-O-(6-[DY547]-aminohexylcarbamoyl)-cyclic diguanosine monophosphate [diGMP only]”, the “uptake of diGMP (fluorescence microscopy)” value in experiment [1] is on record as “weak uptake”.
Turning to `Nc1nc2c(ncn2[C@@H]2O[C@@H]3COP(=O)(O)O[C@H]4[C@@H](O)[C@H](n5cnc6c(N)ncnc65)O[C@@H]4COP(=O)(O)O[C@@H]2[C@@H]3O)c(=O)[nH]1` [cGAMP, cyclic guanosine monophosphate-adenosine monophosphate], in experiment [2], the “mice with complete tumor remission / complete response” value is 2 out of 10. In addition, in experiment [3], the “STING or IRF-3 phosphorylation (western blot)” value was “no STING or IRF-3 phosphorylation”.
